According to ChEMBL document CHEMBL4265999, “Design, Synthesis, and Characterization of Novel Small Molecules as Broad Range Antischistosomal Agents” (ACS Med Chem Lett, 2018):

Experiments:
[1] = test system: Schistosoma mansoni; assay: Antischistosomal activity against Schistosoma mansoni infected in golden syrian hamster assessed as worm killing at 143 uM pretreated for 45 mins followed by compound washout measured after 14 days; format: functional
[2] = test system: Schistosoma haematobium; assay: Antischistosomal activity against Schistosoma haematobium infected in golden syrian hamster assessed as worm killing at 143 uM pretreated for 45 mins followed by compound washout measured after 14 days; format: functional
[3] = test system: Schistosoma japonicum; assay: Antischistosomal activity against Schistosoma japonicum infected in golden syrian hamster assessed as worm killing at 143 uM pretreated for 45 mins followed by compound washout measured after 14 days; format: functional
[4] = Dissociation constant, pKa of the compound; format: physicochemical
[5] = Lipophilicity, log D of the compound; format: physicochemical; details: octanol/water

O=[N+]([O-])c1cc(NC2CCCN(Cc3ccccn3)C2)ccc1CO (stereo not given)
Activity [1]: 0%

O=[N+]([O-])c1ccc(CN2CCC(Nc3ccc(CO)c([N+](=O)[O-])c3)C2)cc1 (stereo not given)
Activity [1]: 17%

O=[N+]([O-])c1cc(NC2CCN(Cc3cccc(C(F)(F)F)c3)C2)ccc1CO (stereo not given)
Activity [2]: 8%
Activity [1]: 93%

O=[N+]([O-])c1cc(NC2CCN(Cc3ccc(C(F)(F)F)cc3)CC2)ccc1CO
Activity [2]: 0%
Activity [1]: 81%

O=[N+]([O-])c1cc(NC2CCCNC2)ccc1CO (stereo not given)
Activity [1]: 50%

O=[N+]([O-])c1cc(NC2CCN(Cc3ccccn3)C2)ccc1CO (stereo not given)
Activity [1]: 0%

O=[N+]([O-])c1cc(NC2CCCN(Cc3ccccc3)C2)ccc1CO (stereo not given)
Activity [1]: 60%

O=[N+]([O-])c1cc(NC2CCN(Cc3ccccc3C(F)(F)F)C2)ccc1CO (stereo not given)
Activity [1]: 27%

O=[N+]([O-])c1cc(NC2CCN(Cc3ccc(C(F)(F)F)cc3)C2)ccc1CO (stereo not given)
Activity [2]: 10%
Activity [1]: 100%

O=[N+]([O-])c1cc(NC2CCCN(Cc3ccc(OC(F)(F)F)cc3)C2)ccc1CO (stereo not given)
Activity [3]: 10%
Activity [2]: 43%
Activity [1]: 40%

O=[N+]([O-])c1cc(NC2CCN(Cc3ccccc3)C2)ccc1CO (stereo not given)
Activity [1]: 75%

COc1ccccc1CN1CCC(Nc2ccc(CO)c([N+](=O)[O-])c2)C1 (stereo not given)
Activity [1]: 7%

O=[N+]([O-])c1cc(NC2CCCN(Cc3ccccc3C(F)(F)F)C2)ccc1CO (stereo not given)
pKa [4]: 5.9
Activity [3]: 83%
Activity [2]: 40%
logD [5]: 3.27
Activity [1]: 75%

Cn1cncc1CN1CCCC(Nc2ccc(CO)c([N+](=O)[O-])c2)C1 (stereo not given)
Activity [1]: 20%

O=[N+]([O-])c1cc(NC2CCN(Cc3ccccc3C(F)(F)F)CC2)ccc1CO
Activity [1]: 20%

O=[N+]([O-])c1cc(NC2CCN(Cc3ccc(OC(F)(F)F)cc3)CC2)ccc1CO
Activity [2]: 14%
Activity [1]: 97%

CC(C)N1CCC(Nc2ccc(CO)c([N+](=O)[O-])c2)C1 (stereo not given)
Activity [1]: 40%

O=[N+]([O-])c1cc(NC2CCCN(CCc3ccccc3)C2)ccc1CO (stereo not given)
Activity [1]: 40%

O=[N+]([O-])c1cc(NC2CCN(Cc3c[nH]c4ccccc34)C2)ccc1CO (stereo not given)
Activity [1]: 85%

O=[N+]([O-])c1cc(NC2CCN(Cc3ccccc3OC(F)(F)F)C2)ccc1CO (stereo not given)
Activity [2]: <40%
Activity [1]: 100%

O=[N+]([O-])c1cc(NC2CCN(Cc3cccc(OC(F)(F)F)c3)C2)ccc1CO (stereo not given)
Activity [1]: 60%

CC(C)N1CCCC(Nc2ccc(CO)c([N+](=O)[O-])c2)C1 (stereo not given)
Activity [1]: 10%

O=[N+]([O-])c1cc(NC2CCCN(Cc3ccccc3OC(F)(F)F)C2)ccc1CO (stereo not given)
Activity [2]: <40%
Activity [1]: 84%

Cn1cncc1CN1CCC(Nc2ccc(CO)c([N+](=O)[O-])c2)C1 (stereo not given)
Activity [1]: 0%

O=[N+]([O-])c1cc(NC2CCN(Cc3ccccc3F)C2)ccc1CO (stereo not given)
Activity [1]: 30%

O=[N+]([O-])c1cc(NC2CCN(Cc3ccc(OC(F)(F)F)cc3)C2)ccc1CO (stereo not given)
Activity [3]: 0%
Activity [2]: 40%
Activity [1]: 87%

O=[N+]([O-])c1cc(NC2CCN(Cc3ccc(Cl)cc3Cl)C2)ccc1CO (stereo not given)
Activity [1]: 17%

O=[N+]([O-])c1cc(NC2CCN(CCc3ccccc3)C2)ccc1CO (stereo not given)
Activity [1]: 7%

O=[N+]([O-])c1cc(NC2CCCN(Cc3cccc(C(F)(F)F)c3)C2)ccc1CO (stereo not given)
Activity [3]: 2%
Activity [2]: 2%
Activity [1]: 100%

O=[N+]([O-])c1cc(NC2CCNC2)ccc1CO (stereo not given)
Activity [1]: 10%

O=[N+]([O-])c1cc(NC2CCCN(Cc3c[nH]c4ccccc34)C2)ccc1CO (stereo not given)
Activity [1]: 26%

CC(C)NCC1CCc2cc(CO)c([N+](=O)[O-])cc2N1 (stereo not given) [OXAMNIQUINE]
Activity [3]: 0%
Activity [2]: 0%
Activity [1]: 50 - 85%
